Measured values published in patent US20170050957A1, “4-AMINO-6-(HETEROCYCLIC)PICOLINATES AND 6-AMINO-2-(HETEROCYCLIC)PYRIMIDINE-4-CARBOXYLATES AND THEIR USE AS HERBICIDES” (Dow AgroSciences LLC, priority 2013, published 2017).
Like-named read-outs stand apart in the source and are kept apart here.

Experiments:
[1] = test system: Key Broadleaf Weed and Crop Species; assay: Post-emergent Test II herbicidal activity (Table 15); format: in vivo; conditions: post-emergence, 336 h, 14 d; for pest or weed control at 35 g/ha: 35 g ai/ha; for pest or weed control at 70 g/ha: 70 g ai/ha; for pest or weed control at 140 g/ha: 140 g ai/ha
Summary of the method: (§1)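 Plants at first-second true leaf stage, grown 7-21 d in greenhouse (~15 h photoperiod, 23-29 °C day), were track-sprayed at 187 L/ha with compound in acetone/DMSO/water/isopropanol/crop oil/Triton X-155 at a high rate plus 1/2× to 1/16× dilutions. Injury scored visually after 14 d versus untreated plants, 0 (none) to 100% (complete kill).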

[2] = test system: Key Grass and Sedge Weeds as well as Grass Crops; assay: Post-emergent Test II herbicidal activity (Table 16); format: in vivo; conditions: post-emergence, 336 h, 14 days after application; for pest or weed control at 35 g/ha: 35 g ai/ha; for pest or weed control at 70 g/ha: 70 g ai/ha; for pest or weed control at 140 g/ha: 140 g ai/ha
Summary of the method: as §1

[3] = Abutilon theophrasti, velvetleaf (Abutilon theophrasti), read-out: Visual Growth Reduction (%) 14 Days After Application, ABUTH
[4] = Amaranthus retroflexus, redroot pigweed (Amaranthus retroflexus), read-out: Visual Growth Reduction (%) 14 Days After Application, AMARE
[5] = Brassica napus, oilseed rape, canola (Brassica napus), read-out: Visual Growth Reduction (%) 14 Days After Application, BRSNN
[6] = Chenopodium album, lambsquarters (Chenopodium album), read-out: Visual Growth Reduction (%) 14 Days After Application, CHEAL
[7] = Euphorbia heterophylla, wild poinsettia (Euphorbia heterophylla), read-out: Visual Growth Reduction (%) 14 Days After Application, EPHHL
[8] = Helianthus annuus, sunflower (Helianthus annuus), read-out: Visual Growth Reduction (%) 14 Days After Application, HELAN
[9] = Cyperus esculentus, yellow nutsedge (Cyperus esculentus), read-out: Visual Growth Reduction (%) 14 Days After Application CYPES
[10] = Echinochloa crus-galli, barnyardgrass (Echinochloa crus-galli), read-out: Visual Growth Reduction (%) 14 Days After Application ECHCG
[11] = Oryza sativa, rice (Oryza sativa), read-out: Visual Growth Reduction (%) 14 Days After Application ORYSA
[12] = Setaria faberi, giant foxtail (Setaria faberi), read-out: Visual Growth Reduction (%) 14 Days After Application SETFA
[13] = Triticum aestivum, wheat, spring (Triticum aestivum), read-out: Visual Growth Reduction (%) 14 Days After Application TRZAS
[14] = Zea mays, maize, corn (Zea mays), read-out: Visual Growth Reduction (%) 14 Days After Application ZEAMX

## COC(=O)c1nc(-c2ccc3cn[nH]c3c2)c(F)c(N)c1Cl [Compound 4.05]
[1]; [3]
  pest or weed control at 35 g/ha: 0 to 29%
  pest or weed control at 70 g/ha: 0 to 29%
  pest or weed control at 140 g/ha: 45 to 59%
[1]; [4]
  pest or weed control at 35 g/ha: 0 to 29%
  pest or weed control at 70 g/ha: 95 to 100%
  pest or weed control at 140 g/ha: 95 to 100%
[1]; [5]
  pest or weed control at 35 g/ha: 0 to 29%
  pest or weed control at 70 g/ha: 0 to 29%
  pest or weed control at 140 g/ha: 45 to 59%
[1]; [6]
  pest or weed control at 35 g/ha: 85 to 94%
  pest or weed control at 70 g/ha: 85 to 94%
  pest or weed control at 140 g/ha: 95 to 100%
[1]; [7]
  pest or weed control at 35 g/ha: 60 to 74%
  pest or weed control at 70 g/ha: 95 to 100%
  pest or weed control at 140 g/ha: 95 to 100%
[1]; [8]
  pest or weed control at 35 g/ha: 60 to 74%
  pest or weed control at 70 g/ha: 60 to 74%
  pest or weed control at 140 g/ha: 95 to 100%
[2]; [9]
  pest or weed control at 35 g/ha: 0 to 29%
  pest or weed control at 70 g/ha: 0 to 29%
  pest or weed control at 140 g/ha: 0 to 29%
[2]; [10]
  pest or weed control at 140 g/ha: 85 to 94%
[2]; [11]
  pest or weed control at 35 g/ha: 0 to 29%
  pest or weed control at 70 g/ha: 0 to 29%
  pest or weed control at 140 g/ha: 0 to 29%
[2]; [12]
  pest or weed control at 140 g/ha: 95 to 100%
[2]; [13]
  pest or weed control at 35 g/ha: 0 to 29%
  pest or weed control at 70 g/ha: 0 to 29%
  pest or weed control at 140 g/ha: 0 to 29%
[2]; [14]
  pest or weed control at 35 g/ha: 0 to 29%
  pest or weed control at 70 g/ha: 60 to 74%
  pest or weed control at 140 g/ha: 60 to 74%
other
  melting point: 185 to 187 °C

## Nc1c(F)c(-c2ccc3cn[nH]c3c2)nc(C(=O)O)c1Cl [Compound 4.06]
[1]; [3]
  pest or weed control at 35 g/ha: 0 to 29%
  pest or weed control at 70 g/ha: 0 to 29%
  pest or weed control at 140 g/ha: 0 to 29%
[1]; [4]
  pest or weed control at 35 g/ha: 75 to 84%
  pest or weed control at 70 g/ha: 95 to 100%
  pest or weed control at 140 g/ha: 95 to 100%
[1]; [5]
  pest or weed control at 35 g/ha: 60 to 74%
  pest or weed control at 70 g/ha: 75 to 84%
  pest or weed control at 140 g/ha: 85 to 94%
[1]; [6]
  pest or weed control at 35 g/ha: 0 to 29%
  pest or weed control at 70 g/ha: 45 to 59%
  pest or weed control at 140 g/ha: 95 to 100%
[1]; [7]
  pest or weed control at 35 g/ha: 45 to 59%
  pest or weed control at 70 g/ha: 60 to 74%
  pest or weed control at 140 g/ha: 85 to 94%
[1]; [8]
  pest or weed control at 35 g/ha: 45 to 59%
  pest or weed control at 70 g/ha: 60 to 74%
  pest or weed control at 140 g/ha: 75 to 84%
[2]; [9]
  pest or weed control at 35 g/ha: 0 to 29%
  pest or weed control at 70 g/ha: 0 to 29%
  pest or weed control at 140 g/ha: 0 to 29%
[2]; [10]
  pest or weed control at 35 g/ha: 0 to 29%
  pest or weed control at 70 g/ha: 45 to 59%
  pest or weed control at 140 g/ha: 75 to 84%
[2]; [11]
  pest or weed control at 35 g/ha: 0 to 29%
  pest or weed control at 70 g/ha: 0 to 29%
  pest or weed control at 140 g/ha: 0 to 29%
[2]; [12]
  pest or weed control at 35 g/ha: 0 to 29%
  pest or weed control at 70 g/ha: 0 to 29%
  pest or weed control at 140 g/ha: 45 to 59%
[2]; [13]
  pest or weed control at 35 g/ha: 0 to 29%
  pest or weed control at 70 g/ha: 0 to 29%
  pest or weed control at 140 g/ha: 0 to 29%
[2]; [14]
  pest or weed control at 35 g/ha: 0 to 29%
  pest or weed control at 70 g/ha: 0 to 29%
  pest or weed control at 140 g/ha: 0 to 29%
other
  melting point: > 300 °C
